Data reported in patent US20070172529A1, “Herbal formulation for the treatment of piles” (COUNCIL OF SCIENTIFIC AND INDUSTRIAL RESEARCH, priority 2004, published 2007).
Marks after values point to notes of the source that are not given here.

Experiments:
Bacillus Substilis = details: against Bacillus Substilis; cited from earlier work
force-induced pain = assay: Analgesy-meter force-induced pain in rats; type: in vivo, rat; details: mean ± SEM, six rats
Procedure: Analgesy-meter induced pain: The analgesic effect of the powder was tested in rat of either sex, using an Ugo Basile Analgesy meter (No. 32725) (21025 Comerio-[…], Italy). This method involves the application of force to the paw of the rat using the Analgesy-meter, which exerts a force that increases at a constant rate. The rat was gently placed between the plinth and plunger. The instrument was switched on and a constant motor rate was used to drive the plunger on to the paw of the rat. When the rat struggles, the instrument is switched off and the force at which the animal felt pain was read on a scale calibrated in grams ×10 by a pointers. The pre-treatment and the after treatment weight causing pain was determined for each rat. […]

[1] = test system: λ carrageenin induced edema; assay: λ carrageenin induced paw edema in rats; type: in vivo, rat
Procedure: Carrageenin induced paw edema: Rats were injected with 0.1 ml of 1% λ carrageenin (St.-Louis, Mo.) into the subplantar side of the left hind paw. The paw was marked with ink at the level of the lateral malleolus and dipped in perspex cell up to this mark. The paw volume was measured with an Ugo Basile Plethysmometer (No: 61402) (7140 Comerio-varese, Italy) immediately and 3 h after injecting the λ carrageenin suspension. […] Significant reductions in the paw volume compared to vehicle treated control animals were considered as anti-inflammatory response. Percentage inhibition of oedema was calculated as follows: % Inhibition=(1−VT/VC)×100
VT=Paw volume in drug treated rats, VC=Paw volume in control group of rats.

interleukin-1 production = details: Chem. Pharm. Bull. 1992, 40,2041; cited from earlier work

Molecule: C[C@@H]1O[C@@H](Oc2ccc(CN=C=S)cc2)[C@H](O)[C@H](O)[C@H]1O [4-(α-L Rhamnosyloxy benzylisothiocynate]
- Antibacterial activity (Bacillus Substilis): exhibited antibacterial activity

Molecule: CC(C)Cc1ccc(C(C)C(=O)O)cc1 (stereo not drawn) [Ibuprofen]
- Weight causing pain (g) After Administration (force-induced pain; 100 mg/kg): 161.1 ± 7.9^b g
- Weight causing pain (g) Before Administration (force-induced pain; pre-treatment value of 100 mg/kg group): 84.7 ± 5.7 g

Molecule: COc1ccc2c(c1)c(CC(=O)O)c(C)n2C(=O)c1ccc(Cl)cc1 [Indomethacin]
- Paw volume (ml) at 3h λ carrageenin ([1]; 100 mg/kg, mean ± SEM, six rats): 0.15 ± 0.02 mL
- inhibition at 100 mg/kg ([1]; Rattus norvegicus, 3 h after λ carrageenin, vs control): 84.7%

Molecule: Pongapipnone A
- Inhibition of interleukin-1 production (interleukin-1 production): inhibited interleukin-1 production
